Measurements taken from article PMC11809180, “RA-PR058, a novel ramalin derivative, reduces BACE1 expression and phosphorylation of tau in Alzheimer’s disease mouse models” (Animal Cells and Systems, 2025).

Legend:
3xTg-AD mice = assay: Elevated plus maze test in 3xTg-AD mice; type: in vivo, mouse; details: 20 mg/kg oral daily for 1 month, vs vehicle-treated 3xTg-AD
Protocol: 3xTg-AD (B6;129-Tg(APPSwe,tauP301L)1Lfa Psen1^tm1Mpm/Mmjax) mice and their littermate wild-type (WT) mice were used in this study. Each experimental group consisted of 4–8 mice, with groups designated as WT, 3xTg-AD Vehicle, and 3xTg-AD RA-PR058. All mice were maintained in a 12-hour light/dark cycle with free access to food and water. 7-month-old age of mice were administered with 20 mg/kg of RA-PR058 orally once a day for 1 month followed by the elevated plus maze test. All animal experimental procedures were approved by the Institutional Animal Care and Use Committee of Sungkyunkwan University (SKKUIACUC2022-10-41-1).
The elevated plus maze (EPM) test is a widely used behavioral assay to assess anxiety-like behavior in mice (Walf and Frye [2007]). After administering RA-PR058 for 1 month, EPM was performed to evaluate its effects. Briefly, the mouse was placed in the center of the maze, facing an open arm, and allowed to explore freely for 5 minutes. Behavioral patterns were recorded and analyzed by EthoVision software (Noldus). Data were used to assess the effects of RA-PR058 on anxiety-like behavior compared to control mice.

BACE1 = BACE1 expression in SH-SY5Y cells under H2O2 oxidative stress (western blot); type: cell-based, human; details: 10 μM RA-PR058 24 hours, then 200 μM H2O2 4 hours, normalized with β-Actin, n = 4
Protocol: Human neuroblastoma cell line, SH-SY5Y were maintained in DMEM (Welgene) supplemented with 10% fetal bovine serum (FBS, Gibco) and 1% penicillin/streptomycin (Capricorn) at 37 °C in a humidified atmosphere containing 5% CO2. […] [2024]). Samples for western blot analysis were prepared as previously described (Gwon et al. [2012]). Cells were lysed with T-PER^TM Tissue Protein Extraction Reagent (Thermo Fisher Scientific) supplemented with protease/phosphatase inhibitor cocktail (Thermo Fisher Scientific) and incubated at 4 °C for 10 minutes. After incubation, lysed samples were centrifuged at 13,000 x rpm for 10 minutes at 4 °C and the supernatant were used for western blot analysis. The cortices and hippocampi tissues were homogenized using RIPA lysis buffer (Millipore) supplemented with protease/phosphatase inhibitor cocktail and incubated at 4 °C for 30 minutes. Following incubation, lysed tissues were centrifuged at 13,000 x rpm for 30 minutes at 4 °C and the supernatant were used for western blot analysis. Protein concentrations were measured using Pierce^TM BCA Protein Assay Kits (Thermo Fisher Scientific). Equal amounts of proteins were mixed with NuPAGE^TM LDS Sample Buffer (Invitrogen) and 5% 2-mercaptoethanol (Sigma) and then boiled at 95 °C for 5 minutes. […] Protein bands were quantified using ImageJ (NIH).

[1] = Plasma and brain pharmacokinetics after oral administration; type: in vivo; details: Sprague-Dawley, rat, 10 mg/kg oral, S.D. rats; for AUC(0-t): read-out: AUC0-7h
Protocol: (§1) Pharmacokinetic assays were conducted by NeuroVis (Republic of Korea). 10 mg/kg of RA-PR058 was administered to Sprague–Dawley rats by either oral administration route or intravenous injection route. Blood sampling was conducted using the BASi Culex ABS system. After cannulation, catheters were inserted into the jugular vein and the carotid artery of the rats, with the system programmed to collect 200 μL samples. Collected blood samples were centrifuged at 12,000 x rpm for 10 minutes to separate plasma, which was then immediately stored at −80 ℃. For brain pharmacokinetics, 10 mg/kg of RA-PR058 was administered orally to Sprague–Dawley rats, followed by collection of both blood and brain tissue. After collection, samples were mixed with the internal standard, ofloxacin, and centrifuged at 13,000 x rpm for 5 minutes at 4 ℃. The resulting supernatants were then combined with 50% methanol and analyzed by LC-MS/MS.

[2] = system: cytochrome P450 (CYP) isoforms (CYP1A2, CYP2C9, CYP2C19, CYP2D6, and CYP3A); assay: Cytochrome P450 inhibition assay in human liver microsomes; type: in vitro ADME; details: 10 μM RA-PR058, 20 minutes 37 ℃, with NADPH regenerating system
Protocol: Inhibitory potentials of RA-PR058 on cytochrome P450 (CYP) isoforms (CYP1A2, CYP2C9, CYP2C19, CYP2D6, and CYP3A) were evaluated. This assay was conducted by SPMED Co., Ltd (Republic of Korea). Human liver microsomes were incubated at 37 ℃ for 20 minutes with phosphate buffer (pH 7.4), each CYP substrate (for CYP1A2: phenacetin, CYP2C9: diclofenac, CYP2C19: S-mephenytoin, CYP2D6: dextromethorphan, CYP3A: midazolam), and 10 μM of RA-PR058 in the presence of an NADPH regenerating system. The reaction was terminated by adding an acetonitrile solution containing an internal standard. Following reaction termination, samples were centrifuged, and the supernatant was injected into an LC-MS/MS system to analyze the metabolites of each substrate drug.

[3] = Plasma pharmacokinetics after IV and PO administration; type: in vivo; details: Sprague-Dawley, rat, 10 mg/kg, S.D. rats; for Cmax / half-life / AUC(0-t): in vivo; for AUC(0-t): read-out: AUC0-7h; for Tmax: plasma
Protocol: as §1

Cl.N[C@@H](CCC(=O)NNc1ccccc1F)C(F)F [RA-PR058, (S)-4-amino-5,5-difluoro-N'-(2-fluorophenyl)pentanehydrazide hydrochloride]
Time spent in open arms of the EPM (3xTg-AD mice): significantly more time | H2O2-induced increase in BACE1 expression (BACE1): markedly attenuated | Kp ([1]; brain and plasma, read-out: Brain-to-plasma AUC ratio (AUC0–7h)): 0.916 | Cmax ([1]; Brain): 3190 ng/mL | half-life ([1]; Brain): 1.57 h | AUC(0-t) ([1]; Brain): 6090 ng·h/mL | Cmax ([1]; Plasma): 3900 ng/mL | half-life ([1]; Plasma): 1.06 h | AUC(0-t) ([1]; Plasma): 5700 ng·h/mL | Decrease in mean control activity of CYP isoforms [2]: 12% | Cmax ([3]; IV): 4260 ng/mL | half-life ([3]; IV): 1.06 h | AUC(0-t) ([3]; IV): 5700 ng·h/mL | Cmax ([3]; PO): 3480 ng/mL | half-life ([3]; PO): 1.57 h | AUC(0-t) ([3]; PO): 6090 ng·h/mL | Tmax ([3]; IV): 0.292 h | Tmax ([3]; PO): 0.458 h
